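Protocol summary: plate cells (96-well), add compound at 5 concentrations, incubate 48 h, interpolate endpoints linearly. GI50 is the concentration that inhibits growth by half.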 The source made the active and inactive calls. No stated cut-off is given here; in the data, active = GI50 up to about 1.1 µM and inactive = higher.
What was measured:
Experiment in all cases: NCI-60 cell line screen, 48 h
A549 = system: A549
CAKI-1 = system: CAKI-1
DU-145 = system: DU-145
EKVX = system: EKVX
HOP-92 = system: HOP-92
HT-29 = system: HT-29
MOLT-4 = system: MOLT-4
Malme-3M = system: Malme-3M
NCI-H226 = system: NCI-H226
NCI-H460 = system: NCI-H460
NCI-H522 = system: NCI-H522
NCI/ADR-RES = system: NCI/ADR-RES
OVCAR-3 = system: OVCAR-3
OVCAR-8 = system: OVCAR-8
SF-268 = system: SF-268
SK-MEL-28 = system: SK-MEL-28
SN12C = system: SN12C
SNB-19 = system: SNB-19
SW-620 = system: SW-620
TK-10 = system: TK-10

Measured: GI50

O=C(CC(O)c1cccnc1)CC(O)c1cccnc1 (stereo not given)
inactive: A549 20.6 µM | CAKI-1 17.7 µM | DU-145 32.2 µM | EKVX 20.9 µM | HOP-92 17.4 µM | HT-29 7.05 µM | MOLT-4 3.49 µM | Malme-3M 18.4 µM | NCI-H226 45.7 µM | NCI-H460 19.7 µM | NCI-H522 13.4 µM | NCI/ADR-RES 24 µM | OVCAR-3 14.7 µM | OVCAR-8 15.3 µM | SF-268 25.5 µM | SK-MEL-28 19.5 µM | SN12C 18.6 µM | SNB-19 21.7 µM | SW-620 4.97 µM | TK-10 > 55.1 µM

CC(C)/C(Cl)=N\OC(=O)Nc1ccc(C#N)cc1
inactive: A549 20 µM | CAKI-1 5.58 µM | DU-145 18 µM | EKVX 2.58 µM | HOP-92 1.56 µM | HT-29 21 µM | MOLT-4 1.92 µM | Malme-3M 2.62 µM | NCI-H226 13.1 µM | NCI-H460 17.3 µM | NCI-H522 1.75 µM | NCI/ADR-RES 17.1 µM | OVCAR-3 16.8 µM | OVCAR-8 16.7 µM | SF-268 19.2 µM | SK-MEL-28 12.1 µM | SN12C 13.7 µM | SNB-19 18.3 µM | SW-620 1.81 µM | TK-10 5.35 µM

NS(=O)(=O)c1ccc(NNc2c3ccccc3nc3c(C(=O)Nc4ccc(S(N)(=O)=O)cc4)cccc23)cc1
inactive: A549 > 100 µM | CAKI-1 > 100 µM | DU-145 43.8 µM | EKVX 42.8 µM | HOP-92 5.07 µM | HT-29 26.9 µM | MOLT-4 7.85 µM | Malme-3M 23.8 µM | NCI-H226 37.6 µM | NCI-H460 24.2 µM | NCI-H522 15.2 µM | NCI/ADR-RES > 100 µM | OVCAR-3 23 µM | OVCAR-8 26.5 µM | SF-268 16.2 µM | SK-MEL-28 48.6 µM | SN12C 31.5 µM | SNB-19 33.5 µM | SW-620 15.3 µM | TK-10 > 100 µM

Reference: ChEMBL document CHEMBL1201862, “PubChem BioAssay data set” (2004)
